The values that follow come from US7772225B2, “N-sulfamoyl-piperidineamides for the treatment or inhibition of obesity and related conditions” (Solvay Pharmaceuticals GmbH, priority 2005, dated 2010).

One data set relates to C57B1/6 mice. As to the kind of experiment: Acute in vivo food intake test in mice. The conditions noted are these: 24 h food intake, 100 mg/kg/day oral gavage in two half doses, high caloric diet, male or female mice. Here is the method: 2. Acute In Vivo Food Intake Test in Mice
The studies were carried out in male or female C57B1/6 mice (n=8-12 per group). The mice were kept on an inverted 12/12h light/dark cycle (lights on 22:00). They were allowed food (high caloric diet) and water ad libitum. Food intake and water consumption was measured daily. The test compound of Formula I was suspended in 1% methylcellulose in water and 2% (v/v) of Poloxamer 188 (Lutrol F68®) and administered by oral gavage at a dose of 100 mg/kg/day. One half of the dose was administered at 7.00-9.00 h; the remaining half of the dose was administered between 15.00-15.30 h.
In the test model described above, the test substances caused a decrease of the animals' 24 h food intake to the percentages of food intake when compared to control as given in the following Table 2.

In data set [1] the target is T1, human carbonic anhydrase isoenzyme II (hCA II) (Homo sapiens, UniProt P00918).
T1 construct: human carbonic anhydrase isoenzyme II from erythrocytes (Sigma-Aldrich); purchased Sigma-Aldrich; host or cells: human erythrocytes (natural source)
As to the kind of experiment: In vitro inhibition of human carbonic anhydrase isoenzyme II (hCA II), dansylamide fluorescence. To be noted: hCA II from erythrocytes 10^-7 M/L, read at 60 min 37° C., single measurements, read-out: IC50 (hCA II inhibiting effect in vitro). The format is binding. Here is the method:
1. In Vitro Inhibition of Human Carbonic Anhydrase Isoenzyme II (hCA II)
The test compounds of Formula I in 96 well microplates were diluted with aqua bidest by using an automatic pipettor (CyBiWell®). From the different dilution plates, aliquots of 20 μl were transferred to the 96 well black assay plates with a pipetting station (Tecan Genesis®). In a second step, 148 μl of potassium phosphate buffer (20 mM, pH 7.4) was added, and as a third step, 20 μl of enzyme solution (1 μM human carbonic anhydrase isoenzyme II from erythrocytes (Sigma-Aldrich), dissolved in potassium phosphate buffer) incubated for 60 min at room temperature and the fluorescence signal (Tecan Ultra® fluorescence reader; excitation wavelength: 280 nm; emission wavelength: 465 nm) read at the end of the preincubation period (FLU-1). After the preincubation time, 20 μl of aqueous dansylamide solution (1 mM dansylamide (Sigma-Aldrich), dissolved in hydrochloric acid) were added and the fluorescence signal read every 10 min for a period of 60 min at 37° C. For calculation, the fluorescence data of the time point 60 min (FLU-2) were used. The total volume of assay mixture amounted to 208 μl. The final concentration of carbonic anhydrase II was 10^−7 M/L, of dansylamide 2.25×10^−6 and of compounds from 10^−8 M/L up to 10^−5 M/L. Final concentration of DMSO as compound solvent was 0.1 mM. […]

As to `NS(=O)(=O)N1CCC(NC(=O)Nc2ccc(F)cc2)CC1` [Example 1, 4-{[[(4fluorophenyl)amino]-carbonyl]amino}piperidine-1-sulfonamide], the “food intake [% of control]” value with C57B1/6 mice is given as 83 % of control.

By IC50 is commonly meant the point on the concentration scale where inhibition reaches its midpoint. In the case of `NS(=O)(=O)N1CCC(n2c(=O)[nH]c3ccccc32)CC1` [Example 10], the IC50 in data set [1] was determined as 7.3 µM. Regarding `NS(=O)(=O)N1CCC(N(Cc2ccccc2)C(=O)Nc2ccccc2)CC1` [Example 28], in data set [1], the IC50 stood at 6.6 µM. By melting point is commonly meant the temperature, or range, at which the solid turns liquid. Take `NS(=O)(=O)N1CCC(N(C(=O)Nc2ccc(C(F)(F)F)cc2)c2cccnc2)CC1`: the melting point was 188 to 191 °C.
